The values that follow come from patent publication US8546565B2, “Quinazolinamide derivatives” (Merck Patent Gesellschaft, priority 2008, dated 2013).

This experiment addresses T1, Recombinant human HSP90a (Homo sapiens, UniProt P07900).
T1 construct: host or cells: E. coli
As to the kind of experiment: HSP90 radioligand filter binding test ([3H]17AAG competition). The settings on record: [3H]17AAG 0.08 μM, HSP90 1.5 μg/assay, 22° C., 30 min; read-out: IC50 (HSP90 inhibition). The source says:
Test Method for the Measurement of HSP90 Inhibitors
The binding of geldanamycin or 17-allylamino-17-demethoxygeldanamycin (17AAG) to HSP90 and competitive inhibition thereof can be utilised in order to determine the inhibitory activity of the compounds according to the invention (Carreras et al. 2003, Chiosis et al. 2002).
In the specific case, a radioligand filter binding test is used. The radioligand used here is tritium-labelled 17-allylaminogeldanamycin, [3H]17AAG. This filter binding test allows a targeted search for inhibitors which interfere with the ATP binding site.
Recombinant human HSP90a (E. coli expressed, 95% purity);
[3H]17AAG (17-allylaminogeldanamycin, [allylamino-2,3-^3H. Specific activity: 1.11×10^12 Bq/mmol (Moravek, MT-1717);
HEPES filter buffer (50 mM HEPES, pH 7.0, 5 mM MgCl2, BSA 0.01%)
Multiscreen FB (1 μm) filter plate (Millipore, MAFBNOB 50).
The 96-well microtitre filter plates are firstly irrigated and coated with 0.1% of polyethylenimine.
The test is carried out under the following conditions:
Reaction temperature 22° C.
Reaction time: 30 min., shaking at 800 rpm
50 mM HEPES HCl, pH 7.0, 5 mM MgCl2, 0.01% (w/v) of BSA
At the end of the reaction, the supernatant in the filter plate is removed by suction with the aid of a vacuum manifold (Multiscreen Separation System, Millipore), and the filter is washed twice.
The filter plates are then measured in a beta counter (Microbeta, Wallac) with scintillator (Microscint 20, Packard).
“% of control” is determined from the “counts per minutes” values, and the IC-50 value of a compound is calculated therefrom.

As for `Nc1nc(C(=O)N2Cc3ccccc3C2)c2cc(-c3ccccc3S(=O)(=O)NC3CCC3)ccc2n1` [Compound A51, 2-[2-Amino-4-(1,3-dihydroisoindole-2-carbonyl)quinazolin-6-yl]-N-cyclobutylbenzenesulfonamide], the IC50 (in general, the midpoint of a concentration-inhibition curve) was in the range of 0.01 to 1 µM.

With `CCN(CCO)S(=O)(=O)c1ccc(F)cc1-c1ccc2nc(N)nc(C(=O)N3Cc4ccccc4C3)c2c1` [Compound A82], the half-maximal inhibitory concentration (IC50) is 0.01 to 1 µM. In the case of `Nc1nc(C(=O)N2Cc3ccccc3C2)c2cc(-c3ccccc3S(=O)(=O)N3CCC(O)C3)ccc2n1` (centres unmarked) [Compound A31] it was 0.01 to 1 µM; in that of `Nc1nc(C(=O)N2Cc3ccccc3C2)c2cc(-c3cc(F)c(F)cc3C(=O)N3CCCC3)ccc2n1` [Compound A78, {2-Amino-6-[4,5-difluoro-2-(pyrrolidine-1-carbonyl)phenyl]quinazolin-4-yl}-(1,3-dihydroisoindol-2-yl)methanone], 0.01 to 1 µM; in that of `CCN(CCO)S(=O)(=O)c1ccccc1-c1ccc2nc(N)nc(C(=O)N3Cc4ccccc4C3)c2c1` [Compound A25, 2-[2-Amino-4-(1,3-dihydroisoindole-2-carbonyl)quinazolin-6-yl]-N-ethyl-N-(2-hydroxyethyl)benzenesulfonamide], 0.01 to 1 µM.

Turning to `CCNC(=O)c1ccc(Cl)cc1-c1ccc2nc(N)nc(C(=O)N3Cc4ccccc4C3)c2c1` [Compound A86, 2-[2-Amino-4-(1,3-dihydroisoindole-2-carbonyl)quinazolin-6-yl]-4-chloro-N-ethylbenzamide], the IC50 lay in the range of 0.01 to 1 µM. On to `Nc1nc(C(=O)N2Cc3ccccc3C2)c2cc(-c3ccccc3C(=O)N3CCC(CO)C3)ccc2n1` (centres unmarked) [Compound A35], for which the IC50 lay within 0.01 to 1 µM. In the case of `CN(C)S(=O)(=O)c1ccccc1-c1ccc2nc(N)nc(C(=O)N3Cc4ccccc4C3)c2c1` [Compound A4] it was 0.01 to 1 µM; in that of `CCN(C)C(=O)c1ccccc1-c1ccc2nc(N)nc(C(=O)N3Cc4ccccc4C3)c2c1` [Compound A39], 0.01 to 1 µM.

Turning to `Nc1nc(C(=O)N2Cc3ccccc3C2)c2cc(-c3ccccc3S(=O)(=O)N3CCC(O)CC3)ccc2n1` [Compound A9], the IC50 was in the range of 0.01 to 1 µM. The same measure for `Nc1nc(C(=O)N2Cc3ccccc3C2)c2cc(-c3ccccc3C(=O)NC3CC3)ccc2n1` [Compound A48, 2-[2-Amino-4-(1,3-dihydroisoindole-2-carbonyl)quinazolin-6-yl]-N-cyclopropylbenzamide]: 0.01 to 1 µM; for `CCN(CC)C(=O)c1cc(F)ccc1-c1ccc2nc(N)nc(C(=O)N3Cc4ccccc4C3)c2c1` [Compound A71, 2-[2-Amino-4-(1,3-dihydroisoindole-2-carbonyl)quinazolin-6-yl]-N,N-diethyl-5-fluorobenzamide]: 0.01 to 1 µM; for `CN(CCO)C(=O)c1ccccc1-c1ccc2nc(N)nc(C(=O)N3Cc4ccccc4C3)c2c1` [Compound A22]: 0.01 to 1 µM.

For the compound `C[C@@H]1CCCN1S(=O)(=O)c1ccccc1-c1ccc2nc(N)nc(C(=O)N3Cc4ccccc4C3)c2c1` [Compound A66, {2-Amino-6-[2-((R)-2-methylpyrrolidine-1-sulfonyl)phenyl]quinazolin-4-yl}-(1,3-dihydroisoindol-2-yl)methanone], the IC50 is 0.01 to 1 µM. For the compound `CC1CCC(C)N1S(=O)(=O)c1ccccc1-c1ccc2nc(N)nc(C(=O)N3Cc4ccccc4C3)c2c1` (centres unmarked) [Compound A64, {2-amino-6-[2-(2,5-dimethylpyrrolidine-1-sulfonyl)phenyl]-quinazolin-4-yl}-(1,3-dihydroisoindol-2-yl)methanone], the IC50 was 0.01 to 1 µM. For the compound `Nc1nc(C(=O)N2Cc3ccccc3C2)c2cc(-c3ccccc3C(=O)N3CCC(O)CC3)ccc2n1` [Compound A23], the IC50 fell in the range of 0.01 to 1 µM. Consider `Nc1nc(C(=O)N2Cc3ccccc3C2)c2cc(-c3ccccc3S(=O)(=O)NC3CNC3)ccc2n1` [Compound A26, 2-[2-amino-4-(1,3-dihydroisoindole-2-carbonyl)quinazolin-6-yl]-N-azetidin-3-ylbenzenesulfonamide], for which the IC50 was in the range of 0.01 to 1 µM. `CC(C)(C)NS(=O)(=O)c1ccccc1-c1ccc2nc(N)nc(C(=O)N3Cc4ccccc4C3)c2c1` [Compound A1, 2-[2-Amino-4-(1,3-dihydroisoindole-2-carbonyl)quinazolin-6-yl]-N-tert-butylbenzenesulfonamide]: the IC50 lay within 0.01 to 1 µM. Turning to `CCN(CC)S(=O)(=O)c1ccccc1-c1ccc2nc(N)nc(C(=O)N3Cc4ccccc4C3)c2c1` [Compound A45, 2-[2-Amino-4-(1,3-dihydroisoindole-2-carbonyl)quinazolin-6-yl]-N,N-diethylbenzenesulfonamide], the 50% inhibitory concentration (IC50) is 0.01 to 1 µM. For the compound `Nc1nc(C(=O)N2Cc3ccccc3C2)c2cc(-c3ccccc3C(=O)N3CCCC3C(=O)O)ccc2n1` (centres unmarked) [Compound A44, 1-{2-[2-Amino-4-(1,3-dihydroisoindole-2-carbonyl)quinazolin-6-yl]-benzoyl}pyrrolidine-2-carboxylic acid], the IC50 was 0.01 to 1 µM. The same measure for `Nc1nc(C(=O)N2Cc3ccccc3C2)c2cc(-c3ccccc3S(=O)(=O)N3CC(N)C3)ccc2n1` [Compound A29, {2-amino-6-[2-(3-aminoazetidine-1-sulfonyl)phenyl]quinazolin-4-yl}-(1,3-dihydroisoindol-2-yl)methanone]: 0.01 to 1 µM; for `CCNC(=O)c1cc(F)ccc1-c1ccc2nc(N)nc(C(=O)N3Cc4ccccc4C3)c2c1` [Compound A83, 2-[2-Amino-4-(1,3-dihydroisoindole-2-carbonyl)quinazolin-6-yl]-N-ethyl-5-fluorobenzamide]: 0.01 to 1 µM. For the compound `Nc1nc(C(=O)N2Cc3ccccc3C2)c2cc(-c3ccccc3S(=O)(=O)N3CCCC3C(=O)NCCO)ccc2n1` (centres unmarked) [Compound A61, N-(2-hydroxyethyl)-1-{2-[2-amino-4-(1,3-dihydroisoindole-2-carbonyl)quinazolin-6-yl]benzenesulfonyl}pyrrolidine-2-carboxamide], the IC50 lay in the range of 0.01 to 1 µM. As for `CNCCNS(=O)(=O)c1ccccc1-c1ccc2nc(N)nc(C(=O)N3Cc4ccccc4C3)c2c1` [Compound A16, 2-[2-amino-4-(1,3-dihydroisoindole-2-carbonyl)quinazolin-6-yl]-N-(2-methylaminoethyl)benzenesulfonamide], the IC50 lay within 0.01 to 1 µM.

As to `Nc1nc(C(=O)N2Cc3ccccc3C2)c2cc(-c3ccccc3S(=O)(=O)N3CCC(F)(F)C3)ccc2n1` [Compound A53, {2-Amino-6-[2-(3,3-difluoropyrrolidine-1-sulfonyl)phenyl]quinazolin-4-yl}-(1,3-dihydroisoindol-2-yl)methanone], the IC50 fell in the range of 0.01 to 1 µM. Take `Nc1nc(C(=O)N2Cc3ccccc3C2)c2cc(-c3ccccc3C(=O)N3CC[C@H](F)C3)ccc2n1` [Compound A62]: the IC50 was 0.01 to 1 µM. In the case of `COc1cc(C(=O)NC(C)(C)C)c(-c2ccc3nc(N)nc(C(=O)N4Cc5ccccc5C4)c3c2)cc1OC` [Compound A85, 2-[2-Amino-4-(1,3-dihydroisoindole-2-carbonyl)quinazolin-6-yl]-N-tert-butyl-4,5-dimethoxybenzamide], the IC50 was above 10 µM. As to `CNC(=O)C1CCCN1C(=O)c1ccccc1-c1ccc2nc(N)nc(C(=O)N3Cc4ccccc4C3)c2c1` (centres unmarked) [Compound A50, 1-{2-[2-amino-4-(1,3-dihydroisoindole-2-carbonyl)quinazolin-6-yl]benzoyl}pyrrolidine-2-methylamide], the IC50 was in the range of 1 to 10 µM. Turning to `Nc1nc(C(=O)N2Cc3ccccc3C2)c2cc(-c3ccccc3S(=O)(=O)N3CC[C@H](F)C3)ccc2n1` [Compound A67, {2-Amino-6-[2-((S)-3-fluoropyrrolidine-1-sulfonyl)phenyl]quinazolin-4-yl}-(1,3-dihydroisoindol-2-yl)methanone], the IC50 fell in the range of 0.01 to 1 µM. Turning to `CCN(CC)C(=O)c1ccc(F)cc1-c1ccc2nc(N)nc(C(=O)N3Cc4ccccc4C3)c2c1` [Compound A70], the IC50 fell in the range of 0.01 to 1 µM. In the case of `Nc1nc(C(=O)N2Cc3ccccc3C2)c2cc(-c3ccccc3S(=O)(=O)N3CCNC(=O)C3)ccc2n1` [Compound A12] it was 0.01 to 1 µM; in that of `CN(CCOC(=O)CN)S(=O)(=O)c1ccccc1-c1ccc2nc(N)nc(C(=O)N3Cc4ccccc4C3)c2c1` [Compound A15, 2-({2-[2-amino-4-(1,3-dihydroisoindole-2-carbonyl)quinazolin-6-yl]benzenesulfonyl}methylamino)ethyl aminoacetate], 0.01 to 1 µM. The same measure for `CC1CCC(C)N1C(=O)c1ccccc1-c1ccc2nc(N)nc(C(=O)N3Cc4ccccc4C3)c2c1` (centres unmarked) [Compound A57]: 0.01 to 1 µM; for `Cc1nccn1S(=O)(=O)c1ccccc1-c1ccc2nc(N)nc(C(=O)N3Cc4ccccc4C3)c2c1` [Compound A28, {2-Amino-6-[2-(2-methylimidazole-1-sulfonyl)phenyl]quinazolin-4-yl}-(1,3-dihydroisoindol-2-yl)methanone]: 0.01 to 1 µM; for `Nc1nc(C(=O)N2Cc3ccccc3C2)c2cc(-c3cc(F)c(F)cc3C(=O)N3CCC3)ccc2n1` [Compound A80, {2-Amino-6-[2-(azetidine-1-carbonyl)-4,5-difluorophenyl]quinazolin-4-yl}-(1,3-dihydroisoindol-2-yl)methanone]: 0.01 to 1 µM.
